The values that follow come from publication PMC4986100, “Design, Synthesis and Biological Evaluation of4-(Imidazolylmethyl)-2-(4-methylsulfonyl phenyl)-Quinoline Derivatives as Selective COX-2 Inhibitors and In-vitro Anti-breast Cancer Agents” (Iranian Journal of Pharmaceutical Research : IJPR, 2016).

One data set concerns the target T1, COX-1 (Ovis aries, UniProt P05979).
T1 construct: purchased Cayman Chemical
T1 sequence (P05979 25-600): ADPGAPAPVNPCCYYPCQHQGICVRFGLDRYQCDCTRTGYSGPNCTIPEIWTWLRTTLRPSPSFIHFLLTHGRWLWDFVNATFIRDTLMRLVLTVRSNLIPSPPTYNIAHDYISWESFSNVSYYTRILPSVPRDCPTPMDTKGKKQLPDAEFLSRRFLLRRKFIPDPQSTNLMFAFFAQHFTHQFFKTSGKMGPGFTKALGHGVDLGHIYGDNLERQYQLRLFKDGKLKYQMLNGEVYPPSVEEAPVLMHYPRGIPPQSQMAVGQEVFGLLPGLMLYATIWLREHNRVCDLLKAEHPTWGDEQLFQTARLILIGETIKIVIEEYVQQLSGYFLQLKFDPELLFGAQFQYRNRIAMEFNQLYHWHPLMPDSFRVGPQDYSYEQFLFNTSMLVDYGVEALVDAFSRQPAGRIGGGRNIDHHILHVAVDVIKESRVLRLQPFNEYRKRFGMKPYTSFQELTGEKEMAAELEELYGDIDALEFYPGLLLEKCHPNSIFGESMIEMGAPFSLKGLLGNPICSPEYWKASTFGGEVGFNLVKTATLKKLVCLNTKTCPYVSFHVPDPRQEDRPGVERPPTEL
Kind of data set: biochemical. The following applies: ovine COX-1/COX-2 assay kit; means of two determinations. As to the method:
(§1) In-vitro cyclooxygenase (COX) inhibition assays
(§2) The assay was performed using an enzyme chemiluminescentkit (Cayman Chemical, MI, USA) according to our previously reportedmethod([17])The Cayman chemical chemiluminescent COX
(§3) (ovine) inhibitor screening assay utilizes the heme-catalyzedhydroperoxidase activity of ovine cyclooxygenases to generateluminescence in the presence of a cyclic naphthalene hydrazideand the substrate arachidonic acid. Arachidonate-induced luminescencewas shown to be an index of real-time catalytic activity anddemonstrated the turnover inactivation of the enzyme. Inhibition

Another data set concerns the target T2, COX-2 (Ovis aries, UniProt P79208).
T2 construct: purchased Cayman Chemical
T2 sequence (P79208 17-603): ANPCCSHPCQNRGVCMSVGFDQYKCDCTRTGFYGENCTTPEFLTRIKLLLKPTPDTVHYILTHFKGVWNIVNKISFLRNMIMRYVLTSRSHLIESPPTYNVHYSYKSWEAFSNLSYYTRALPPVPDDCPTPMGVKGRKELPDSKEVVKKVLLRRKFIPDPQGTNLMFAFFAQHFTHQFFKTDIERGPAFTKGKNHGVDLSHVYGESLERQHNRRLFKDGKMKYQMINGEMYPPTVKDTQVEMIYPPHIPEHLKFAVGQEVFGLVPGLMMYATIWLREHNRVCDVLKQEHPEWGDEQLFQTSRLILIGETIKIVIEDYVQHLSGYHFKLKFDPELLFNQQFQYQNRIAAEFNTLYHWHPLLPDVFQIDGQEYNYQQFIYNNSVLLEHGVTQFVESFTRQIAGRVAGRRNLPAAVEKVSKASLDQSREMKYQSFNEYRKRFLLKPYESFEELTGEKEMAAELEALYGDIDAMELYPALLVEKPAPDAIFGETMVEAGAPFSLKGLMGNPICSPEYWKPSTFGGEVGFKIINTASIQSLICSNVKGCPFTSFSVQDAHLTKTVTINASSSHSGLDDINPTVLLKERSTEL
Kind of data set: biochemical. The following applies: for Selectivity Index (COX-1 IC50/COX-2 IC50): in-vitro COX-2 selectivity index; for IC50: ovine COX-1/COX-2 assay kit, means of two determinations. Here is the method: as §1, §2, §3

A further data set has as its system MCF-7 cells. The data set can be described thus: MTT cytotoxicity assay. It is filed as cell-based, human. The following applies: for Survival (%) of MCF-7 cells: MTT; for IC50: Homo sapiens, MCF7, 48 h, MTT assay, calculated after two days exposure. As to the method:
(§4) The human breast cancer T47D and MCF-7 cell lines were obtained from Pasteur Institute Cell Bank of IRAN (Tehran, IRAN). Cells were maintained in RPMI-1640(Gibco, UK) culture medium supplemented with 10% fetal bovine serum (Gibco, UK) and 100 U Ml^-1 of penicillin and […] of streptomycin (Gibco, UK) at 37 C in 5% CO2 incubator. All reagent and chemicals used in this experiment were of cell culture or molecular biology grade, purchased from different international sources.
(§5) The MTT (3-[4, 5-dimethylthiazol-2-yl]-2,5-diphenyl tetrazolium bromide) based assay was performed by seeding 5000 cells (T47D and MCF-7) per 180 µL RPMI complete culture medium in each well of 96-well culture plates. The day after seeding, culture medium was changed with medium containing standard anti-tumor drug Doxorubicin as well as different concentrations of newly synthesized compounds and RPMI control (no drug). Cells were then incubated at 37 °C in 5% Co2 incubator for 48h and 72h. Then 25 µL of MTT solution (4mg Ml^-1) were added to each well and further incubated at 37 °C for 3h. At the end of incubation, formazan crystals were dissolved in 100 µL of DMSO and plates were read in a plate reader (TECAN, Austria) at 540 nm. This experiment was performed in triplicate determination each time ([18],[19]).

In the next data set the test system is T47D cells. Kind of data set: MTT cytotoxicity assay. It is filed as cell-based, human. As to conditions: for Survival (%) of T47D cells: MTT; for IC50: MTT assay, calculated after two days exposure. Here is the method: as §4, §5

Molecule `CS(=O)(=O)c1ccc(-c2cc(Cn3ccnc3)c3cccc(-c4ccccc4)c3n2)cc1` [Compound 9a, 4-((1H-Imidazol-1-yl)methyl)-2-(4-methylsulfonylphenyl)-8-phenyl-quinoline] had a melting point of 196 to 198 °C. Moreover, half-maximal inhibition against COX-1 (IC50) required 30.1 µM. Further, on COX-2, the “Selectivity Index (COX-1 IC50/COX-2 IC50)” value amounted to 423.9 and half-maximal inhibition (IC50) was put at 0.071 µM. In the data set on MCF-7 cells (10 µM compound, 48 h exposure), the “Survival (%) of MCF-7 cells” value was 38.3%. Moreover, in the data set on MCF-7 cells (10 µM compound, 72 h exposure), the “Survival (%) of MCF-7 cells” value amounted to 26.7%. In the data set with MCF-7 cells, the half-maximal inhibitory concentration (IC50) was under 10 µM. In the data set on T47D cells (25 µM compound, 48 h exposure), the “Survival (%) of T47D cells” value came out at 33.8%. The “Survival (%) of T47D cells” value in the data set with T47D cells (25 µM compound, 72 h exposure) turned out to be 25.4%. For the same molecule, in the data set with T47D cells (Homo sapiens, T47D, 48 h), the IC50 is at most 25 µM. Besides, the IC50 in the data set with T47D cells was under 25 µM.
`Cc1ccc2c(Cn3ccnc3)cc(-c3ccc(S(C)(=O)=O)cc3)nc2c1C` [Compound 9b, 4-((1H-Imidazol-1-yl)methyl)-2-(4-methylsulfonylphenyl)-7,8-dimethyl-quinoline] came in with a melting point of 218 to 219 °C. In addition, on COX-1, the IC50 is 26 µM. Moreover, on COX-2, the “Selectivity Index (COX-1 IC50/COX-2 IC50)” value stood at 288.9 and half-maximal inhibition (IC50) was put at 0.09 µM. Besides, in the data set on MCF-7 cells (10 µM compound, 48 h exposure), the “Survival (%) of MCF-7 cells” value worked out at 61%. Moreover, the “Survival (%) of MCF-7 cells” value in the data set on MCF-7 cells (10 µM compound, 72 h exposure) is 47.2%. In addition, in the data set with T47D cells (25 µM compound, 48 h exposure), the “Survival (%) of T47D cells” value was found to be 66.2%. Besides, in the data set on T47D cells (25 µM compound, 72 h exposure), the “Survival (%) of T47D cells” value is listed as 69.5%. For the same molecule, the IC50 in the data set with T47D cells (Homo sapiens, T47D, 48 h) is 50 µM.
As for `CS(=O)(=O)c1ccc(-c2cc(Cn3ccnc3)c3ccc4ccccc4c3n2)cc1` [Compound 9c, 4-((1H-Imidazol-1-yl)methyl)-2-(4-methylsulfonylphenyl)-benzo[h]-quinoline], the melting point was 216 to 217 °C. The same molecule yielded an IC50 against COX-1 of 35.9 µM. Also, at COX-2, the “Selectivity Index (COX-1 IC50/COX-2 IC50)” value is given as 527.9 and the IC50 is 0.068 µM. For the same molecule, the “Survival (%) of MCF-7 cells” value in the data set on MCF-7 cells (10 µM compound, 48 h exposure) is 48.4%. Moreover, in the data set with MCF-7 cells (10 µM compound, 72 h exposure), the “Survival (%) of MCF-7 cells” value turned out to be 41.3%. The IC50 in the data set on MCF-7 cells is 10 µM. In the data set on T47D cells (25 µM compound, 48 h exposure), the “Survival (%) of T47D cells” value was determined as 75.8%. In addition, the “Survival (%) of T47D cells” value with T47D cells (25 µM compound, 72 h exposure) is reported as 68.9%. Also, the IC50 in the data set on T47D cells (Homo sapiens, T47D, 48 h) is 50 µM.
In turn, `CS(=O)(=O)c1ccc(-c2cc(Cn3ccnc3)c3ccc4c(c3n2)CCCC4)cc1` [Compound 9d, 4-((1H-Imidazol-1-yl)methyl)-7,8,9,10-tetrahydro-2-(4-methylsulfonylphenyl)-benzo[h]-quinoline] registered a melting point of 247 to 248 °C. This molecule also gave an IC50 against COX-1 of 34.5 µM. Also, on COX-2, the “Selectivity Index (COX-1 IC50/COX-2 IC50)” value amounted to 547.6 and the half-maximal inhibitory concentration (IC50) was 0.063 µM. The “Survival (%) of MCF-7 cells” value in the data set on MCF-7 cells (10 µM compound, 48 h exposure) came to 4%. In addition, the “Survival (%) of MCF-7 cells” value in the data set on MCF-7 cells (10 µM compound, 72 h exposure) is reported as 0.7%. Moreover, the IC50 in the data set on MCF-7 cells is under 5 µM. Further, the “Survival (%) of T47D cells” value in the data set on T47D cells (25 µM compound, 48 h exposure) was 49.1%. In the data set on T47D cells (25 µM compound, 72 h exposure), the “Survival (%) of T47D cells” value came out at 26.1%. For the same molecule, the IC50 in the data set on T47D cells (Homo sapiens, T47D, 48 h) is 25 µM.
As for `CS(=O)(=O)c1ccc(-c2cc(Cn3ccnc3)c3ccccc3n2)cc1` [Compound 9e, 4-((1H-Imidazol-1-yl)methyl)-2-(4-methylsulfonylphenyl)-quinoline], the melting point lay in the range of 189 to 190 °C. This molecule also had an IC50 against COX-1 of 13 µM. On COX-2, the “Selectivity Index (COX-1 IC50/COX-2 IC50)” value is given as 179.9 and the IC50 was 0.072 µM. In the data set with MCF-7 cells (10 µM compound, 48 h exposure), the “Survival (%) of MCF-7 cells” value was found to be 67.2%. The “Survival (%) of MCF-7 cells” value in the data set on MCF-7 cells (10 µM compound, 72 h exposure) came out at 58.2%. Moreover, the “Survival (%) of T47D cells” value with T47D cells (25 µM compound, 48 h exposure) was 47.4%. The “Survival (%) of T47D cells” value in the data set on T47D cells (25 µM compound, 72 h exposure) came to 47.5%. Besides, in the data set on T47D cells (Homo sapiens, T47D, 48 h), the IC50 was 50 µM. The IC50 in the data set on T47D cells was 25 µM.
Regarding `COc1cccc2c1C(=O)c1c(O)c3c(c(O)c1C2=O)C[C@@](O)(C(=O)CO)C[C@@H]3O[C@H]1C[C@H](N)[C@H](O)[C@H](C)O1` [Doxorubicin, reference compound], the IC50 is 0.25 µM in the data set on MCF-7 cells and 0.1 µM in the data set with T47D cells (Homo sapiens, T47D, 48 h). Moreover, the “Survival (%) of MCF-7 cells” value in the data set on MCF-7 cells (doxorubicin at 250 nM (column head says 10 µM), 48 h) was 50.2%; in the data set on MCF-7 cells (doxorubicin at 250 nM (column head says 10 µM), 72 h) it was 31.7%. Besides, the “Survival (%) of T47D cells” value was found to be 53.2% with T47D cells (doxorubicin at 100 nM, 48 h) and 27.1% in the data set with T47D cells (doxorubicin at 100 nM, 72 h).

The term IC50 denotes the point on the concentration scale where inhibition reaches its midpoint. As usually defined, the melting point is the temperature, or range, at which the solid turns liquid.
